# Assay results: patent US9051581B2, “Defense peptides against fungal infection and method of their use” (The Curators of the University of Missouri, priority 2010, dated 2015)
# How the values were obtained:
# [1] = tested on: P. pachyrhizi urediniospores; test: In vitro inhibition of urediniospore germ tube growth by phage-display peptide clones (initial assessment, repeated trials); assay type: cell-based, Phakopsora pachyrhizi; conditions: inhibition = 50% or greater germ tube inhibition after 8 h incubation; 10^13 virions ml^−1; field-collected urediniospores
# Method: Representative, affinity-selected, phage-display peptide clones were initially assessed in vitro for the ability to inhibit urediniospore germ tube growth. Two-hundred fifty phage clones, randomly chosen from the final selection round, were amplified by E. coli infection, twice purified using PEG-precipitation, and re-suspended in sterile deionized water. Phage concentrations were calculated from UV absorbance measurements as virions μl^−1 (2).
# A 25-μl water droplet containing ≈300 non-germinated urediniospores collected from soybean leaves in Florida was incubated on a microscope slide in the presence of a phage clone at a concentration equivalent to 10^13 virions ml^−1. […] Urediniospores were visualized using an Olympus Stereo Zoom Microscope (model SZH; Olympus Optical Co., LTD, Tokyo, Japan) at 50× magnification under transmitted light. Images of germinating urediniospores were captured in random microscope fields with a Spot Insight Color digital camera (Diagnostic Instruments, Inc., Sterling Heights, Mich.). Images were manipulated for viewing using Spot imaging software (version 4.0.3) set up with auto exposure to provide contrast of developing germ tubes against a green background. Comparative germination was assessed in three separate experiments. Phage clones that induced greater than 50% reduction in germ tube length (by visual estimation) compared to growth in water were evaluated in seven additional experiments.
# [2] = tested on: Phakopsora pachyrhizi urediniospores; test: In vitro inhibition of urediniospore germ tube growth by ZmCKX1-peptides; assay type: cell-based; conditions: ZmCKX1 scaffold-display format
# Method: Purified ZmCKX1-Sp2 and ZmCKX1-Sp39 peptides were assessed in vitro for the ability to inhibit urediniospore germination. A 25-μl water droplet containing 300 freshly harvested MOS-2008 urediniospores was incubated on a glass slide in the presence of either ZmCKX1-Sp2 or ZmCKX1-Sp39. Control treatments included urediniospores incubated in water or in the presence of ZmCKX1 alone. Germ tube growth was visualized over time and quantified by image capture and analyses as described previously.
# [3] = tested on: Phakopsora pachyrhizi urediniospores; test: Effect of phage-display peptide concentration on urediniospore germ tube elongation in vitro; assay type: cell-based; conditions: for effective peptide concentration equivalent at maximal inhibition, phage-display format: five peptide copies per M13 virion at ≈10^13 virions ml^−1
# Method: The bioactivities of two inhibitory phage-display peptide clones, M13-Sp2 and M13-Sp39, identified in initial assessments were estimated over a range of concentrations including 0.5, 1.0, and 1.5×10^13 virions ml^−1. As before, a 25-μl water droplet containing ≈300 urediniospores was incubated at 22° C. (4) on a microscope slide in the presence of M13-Sp2 or M13-Sp39 at each concentration. Urediniospores in these and all subsequent experiments were derived from the Missouri population, MOS-2008. Control treatments included urediniospores incubated either in water or an equivalent concentration of phage from an unselected library. Spore germination and germ tube growth were visualized over time and quantified by image capture and analyses using MetaMorph software (Version 6.2r6, Universal Imaging, Downington, Pa.). Germ tube length was measured using a line scan function based on conversion of image pixels to length. Germ tube length was averaged from 50 randomly selected germinated urediniospores in each image and across four experimental replicates per treatment.
Sequence,Frequency of germ tube inhibition over 10 trials [1],"concentration of maximum germ tube inhibition, displayed on ZmCKX1 scaffold [2] [µM]","effective peptide concentration equivalent at maximal inhibition, phage-display format [3] [nM]","concentration of maximal inhibition of germ tube elongation, phage-display format [3]"
"TPTRSLDSPHNM (Random peptide insert) [Sp59, 12-mer phage-display selected peptide]",4,,,
"DHIRISTSYKSP (Random peptide insert) [Sp51, 12-mer phage-display selected peptide]",3,,,
MLESHAWPPRAI (Random peptide insert) [Sp2],8,115,10,≈ 10^13 virions ml^−1
YNKPSFQDHSVI (Random peptide insert) [Sp39],7,115,10,≈ 10^13 virions ml^−1
"ASTIGNLMPGHS (Random peptide insert) [Sp14, 12-mer phage-display selected peptide]",5,,,
"TFDRHILDTRGS (Random peptide insert) [Sp6, 12-mer phage-display selected peptide]",3,,,
"DRFTSDLRAPDS (Random peptide insert) [Sp61, 12-mer phage-display selected peptide]",3,,,
"FDPHEPTNTRSP (Random peptide insert) [Sp15, 12-mer phage-display selected peptide]",6,,,
"YISPLPNAATIS (Random peptide insert) [Sp5, 12-mer phage-display selected peptide]",3,,,
"STVASLGKPTKI (Random peptide insert) [Sp8, 12-mer phage-display selected peptide]",4,,,
"LTKEPATGRAML (Random peptide insert) [Sp18, 12-mer phage-display selected peptide]",6,,,
